Source: patent US12673944B2, “Compounds having inhibitory activity against glucosylceramide synthase or pharmaceutically acceptable salt thereof, processes for preparing the same, and pharmaceutical compositions comprising the same” (YUHAN CORPORATION, priority 2019, dated 2026)
pIC50: −log10 of the molar value.

Key:
[1] = biological target: T1, glucosylceramide synthase (GCS) (Homo sapiens, UniProt Q16739); assay: GCS enzyme inhibition assay (A549 cell lysate, NBD C6-ceramide, HPLC fluorescence); assay type: biochemical; conditions: inhibitory activity against GCS, 37° C., 90 minutes
T1 construct: The obtained supernatant was used; host or cells: A549 cells (lysate supernatant after sonication)
T1 sequence (Q16739 1-394): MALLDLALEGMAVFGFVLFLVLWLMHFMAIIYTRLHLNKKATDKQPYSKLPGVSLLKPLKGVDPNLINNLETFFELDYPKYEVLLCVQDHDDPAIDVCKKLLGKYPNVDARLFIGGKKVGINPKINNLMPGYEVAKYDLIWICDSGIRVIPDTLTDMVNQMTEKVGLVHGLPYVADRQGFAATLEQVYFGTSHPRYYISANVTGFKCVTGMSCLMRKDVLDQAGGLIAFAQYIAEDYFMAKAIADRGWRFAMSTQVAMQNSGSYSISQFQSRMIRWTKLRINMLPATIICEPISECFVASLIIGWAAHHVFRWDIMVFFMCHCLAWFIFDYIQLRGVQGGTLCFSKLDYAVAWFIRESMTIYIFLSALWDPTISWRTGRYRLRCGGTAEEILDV
Summary of the method: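 Percent GCS activity was derived from the GlcCer share of Cer plus GlcCer areas, scaled from ibiglustat (0%) to DMSO (100%). Enzyme came from sonicated A549 lysate in 50 mM HEPES pH 7.3; 90 min incubation at 37° C, chloroform/methanol stop and extraction.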

[2] = tested on: GM1 production in Jurkat cells; assay: cells; assay type: cell-based; conditions: Homo sapiens, Jurkat, 72 h

| Compound | pIC50 [1] | pIC50 [2] |
| --- | --- | --- |
| COc1cccc(-c2cc3c(cc2OC)C(NC(=O)O[C@@H]2CN4CCC2CC4)C(C)(C)CO3)c1 (stereo partly drawn) [Example 354, (S)-quinuclidin-3-yl (6-methoxy-7-(3-methoxyphenyl)-3,3-dimethylchroman-4-yl)carbamate] | 9.20 | 8.51 |
| CC1(C)COc2cc(-c3ccc4cc[nH]c4c3)ccc2C1NC(=O)O[C@@H]1CN2CCC1CC2 (stereo partly drawn) [Example 197, (S)-quinuclidin-3-yl (7-(1H-indol-6-yl)-3,3-dimethylchroman-4-yl)carbamate] | 9.05 | 8.70 |
| CC(C)c1ccc(-c2ccc3c(c2)OCCC3NC(=O)O[C@@H]2CN3CCC2CC3)cc1 (stereo partly drawn) [Example 24, (S)-quinuclidin-3-yl (7-(4-isopropylphenyl)chroman-4-yl)carbamate] | 8.31 | 7.97 |
| COc1cc(-c2ccc3c(c2)OCCC3NC(=O)O[C@@H]2CN3CCC2CC3)ccc1Cl (stereo partly drawn) [Example 66, (S)-quinuclidin-3-yl (7-(4-chloro-3-methoxyphenyl)chroman-4-yl)carbamate] | 8.76 | 7.95 |
| COc1ncc(-c2ccc3c(c2)OCC(C)(C)C3NC(=O)O[C@@H]2CN3CCC2CC3)cc1C (stereo partly drawn) [Example 254, (S)-quinuclidin-3-yl (7-(6-methoxy-5-methylpyridin-3-yl)-3,3-dimethylchroman-4-yl)carbamate] | 8.77 | 7.76 |
| CC1(C)COc2cc(-c3ccccc3C#N)ccc2C1NC(=O)O[C@@H]1CN2CCC1CC2 (stereo partly drawn) [Example 189, (S)-quinuclidin-3-yl (7-(2-cyanophenyl)-3,3-dimethylchroman-4-yl)carbamate] | 9.44 | 10.40 |
| CC1(C)COc2cc(-c3ccc(OCc4ccccc4)cc3)ccc2C1NC(=O)O[C@@H]1CN2CCC1CC2 (stereo partly drawn) [Example 276, (S)-quinuclidin-3-yl (7-(4-(benzyloxy)phenyl)-3,3-dimethylchroman-4-yl)carbamate] | 9.27 | 8.89 |
| O=C(NC1CCOc2cc(-c3ccccc3OC(F)(F)F)ccc21)O[C@@H]1CN2CCC1CC2 (stereo partly drawn) [Example 12, (S)-quinuclidin-3-yl (7-(2-(trifluoromethoxy)phenyl)chroman-4-yl)carbamate] | 8.37 | 8.48 |
| CC1(C)COc2cc(-c3cc(Cl)cc(Cl)c3)ccc2C1NC(=O)O[C@@H]1CN2CCC1CC2 (stereo partly drawn) [Example 179, (S)-quinuclidin-3-yl (7-(3,5-dichlorophenyl)-3,3-dimethylchroman-4-yl)carbamate] | 8.88 | 8.35 |
| CC1(C)COc2cc(-c3ccc4ncccc4c3)ccc2C1NC(=O)O[C@@H]1CN2CCC1CC2 (stereo partly drawn) [Example 132, (S)-quinuclidin-3-yl (3,3-dimethyl-7-(quinolin-6-yl)chroman-4-yl)carbamate] | 8.81 | 8.05 |
| CSc1cccc(-c2ccc3c(c2)SCCC3NC(=O)O[C@@H]2CN3CCC2CC3)c1 (stereo partly drawn) [Example 325, (S)-quinuclidin-3-yl (7-(3-(methylthio)phenyl)thiochroman-4-yl)carbamate] | 9.24 | 8.21 |
| CC1(C)COc2cc(-c3cccc(S(=O)(=O)N4CCCC4)c3)ccc2C1NC(=O)O[C@@H]1CN2CCC1CC2 (stereo partly drawn) [Example 184, (S)-quinuclidin-3-yl (3,3-dimethyl-7-(3-(pyrrolidin-1-ylsulfonyl)phenyl)chroman-4-yl)carbamate] | 9.04 | 8.38 |
| Cc1cc(-c2ccc3c(c2)OCC(C)(C)C3NC(=O)O[C@@H]2CN3CCC2CC3)ccc1N1CCOCC1 (stereo partly drawn) [Example 194, (S)-quinuclidin-3-yl (3,3-dimethyl-7-(3-methyl-4-morpholinophenyl)chroman-4-yl)carbamate] | 9.22 | 8.74 |
| CC1(C)COc2cc(-c3cc(Cl)cc(C(F)(F)F)c3)ccc2C1NC(=O)O[C@@H]1CN2CCC1CC2 (stereo partly drawn) [Example 164, (S)-quinuclidin-3-yl (7-(3-chloro-5-(trifluoromethyl)phenyl)-3,3-dimethylchroman-4-yl)carbamate] | 8.80 | 8.49 |
| COCOc1ccc(-c2ccc3c(c2)OCC(C)(C)C3NC(=O)O[C@@H]2CN3CCC2CC3)cc1 (stereo partly drawn) [Example 108, (S)-quinuclidin-3-yl (7-(4-(methoxymethoxy)phenyl)-3,3-dimethylchroman-4-yl)carbamate] | 9.16 | 9.34 |
| CC1(C)COc2cc(-c3ccc(Cl)cc3Cl)ccc2C1NC(=O)O[C@@H]1CN2CCC1CC2 (stereo partly drawn) [Example 230, (S)-quinuclidin-3-yl (7-(2,4-dichlorophenyl)-3,3-dimethylchroman-4-yl)carbamate] | 9.07 | 9.10 |

| Compound | pIC50 [1] | pIC50 [2] |
| --- | --- | --- |
| CCCCc1ccc(-c2cc3c(cc2OC)C(NC(=O)O[C@@H]2CN4CCC2CC4)C(C)(C)CO3)cc1 (stereo partly drawn) [Example 362, (S)-quinuclidin-3-yl (7-(4-butylphenyl)-6-methoxy-3,3-dimethylchroman-4-yl)carbamate] | 9.96 | 9.15 |
| C=Cc1cccc(-c2ccc3c(c2)OCC(C)(C)C3NC(=O)O[C@@H]2CN3CCC2CC3)c1 (stereo partly drawn) [Example 244, (S)-quinuclidin-3-yl (3,3-dimethyl-7-(3-vinylphenyl)chroman-4-yl)carbamate] | 9.38 | 9.22 |
| CC(C)(C)c1cccc(-c2ccc3c(c2)OCCC3(C)NC(=O)O[C@@H]2CN3CCC2CC3)c1 (stereo partly drawn) [Example 310, (S)-quinuclidin-3-yl (7-(3-(tert-butyl)phenyl)-4-methylchroman-4-yl)carbamate] | 9.64 | 9.70 |
| CC1(NC(=O)O[C@@H]2CN3CCC2CC3)CCOc2cc(-c3cccc(Cl)c3)ccc21 (stereo partly drawn) [Example 297, (S)-quinuclidin-3-yl (7-(3-chlorophenyl)-4-methylchroman-4-yl)carbamate] | 9.10 | 8.25 |
| CC(C)Oc1ccc(-c2cc3c(cc2F)C(NC(=O)O[C@@H]2CN4CCC2CC4)C(C)(C)CO3)cc1Cl (stereo partly drawn) [Example 344, (S)-quinuclidin-3-yl (7-(3-chloro-4-isopropoxyphenyl)-6-fluoro-3,3-dimethylchroman-4-yl)carbamate] | 9.24 | 8.14 |
| CC1(C)COc2cc(-c3cccc4c3oc3ccccc34)ccc2C1NC(=O)O[C@@H]1CN2CCC1CC2 (stereo partly drawn) [Example 290, (S)-quinuclidin-3-yl (7-(dibenzo[b,d]furan-4-yl)-3,3-dimethylchroman-4-yl)carbamate] | 8.81 | 9.05 |
| CC(C)(C)c1ccc(-c2cc3c(cc2F)C(NC(=O)O[C@@H]2CN4CCC2CC4)C(C)(C)CO3)cc1 (stereo partly drawn) [Example 345, (S)-quinuclidin-3-yl (7-(4-(tert-butyl)phenyl)-6-fluoro-3,3-dimethylchroman-4-yl)carbamate] | 9.43 | 8.80 |
| COc1cccc(-c2ccc3c(c2)OCC(C)(C)C3NC(=O)O[C@@H]2CN3CCC2CC3)c1OC (stereo partly drawn) [Example 127, (S)-quinuclidin-3-yl (7-(2,3-dimethoxyphenyl)-3,3-dimethylchroman-4-yl)carbamate] | 8.68 | 7.85 |
| CC1(C)COc2cc(-c3ccc4ccccc4c3)ccc2C1NC(=O)O[C@@H]1CN2CCC1CC2 (stereo partly drawn) [Example 130, (S)-quinuclidin-3-yl (3,3-dimethyl-7-(naphthalen-2-yl)chroman-4-yl)carbamate] | 9.15 | 8.85 |
| O=C(NC1CCOc2cc(-c3cnn(Cc4ccccc4)c3)ccc21)O[C@@H]1CN2CCC1CC2 (stereo partly drawn) [Example 72, (S)-quinuclidin-3-yl (7-(1-benzyl-1H-pyrazol-4-yl)chroman-4-yl)carbamate] | 9.04 | 7.89 |
| CC1(C)COc2cc(-c3cnc(C4CC4)nc3)ccc2C1NC(=O)O[C@@H]1CN2CCC1CC2 (stereo partly drawn) [Example 283, (S)-quinuclidin-3-yl (7-(2-cyclopropylpyrimidin-5-yl)-3,3-dimethylchroman-4-yl)carbamate] | 8.66 | 7.59 |
| CC1(C)COc2cc(-c3cccnc3)ccc2C1NC(=O)O[C@@H]1CN2CCC1CC2 (stereo partly drawn) [Example 265, (S)-quinuclidin-3-yl (3,3-dimethyl-7-(pyridin-3-yl)chroman-4-yl)carbamate] | 8.69 | 7.41 |
| COCOc1ccccc1-c1ccc2c(c1)OCCC2NC(=O)O[C@@H]1CN2CCC1CC2 (stereo partly drawn) [Example 5, (S)-quinuclidin-3-yl (7-(2-(methoxymethoxy)phenyl)chroman-4-yl)carbamate] | 8.43 | 7.53 |
| CC(C)Oc1ccc(-c2ccc3c(c2)OCCC3NC(=O)O[C@@H]2CN3CCC2CC3)cc1Cl (stereo partly drawn) [Example 82, (S)-quinuclidin-3-yl (7-(3-chloro-4-isopropoxyphenyl)chroman-4-yl)carbamate] | 8.54 | 8.15 |
| CCOc1ccc(-c2ccc3c(c2)OCC(C)(C)C3NC(=O)O[C@@H]2CN3CCC2CC3)cn1 (stereo partly drawn) [Example 253, (S)-quinuclidin-3-yl (7-(6-ethoxypyridin-3-yl)-3,3-dimethylchroman-4-yl)carbamate] | 9.12 | 8.19 |
| CC1(C)COc2cc(/C=C/c3ccc(C(F)(F)F)cc3)ccc2C1NC(=O)O[C@@H]1CN2CCC1CC2 (stereo partly drawn) [Example 284, (S)-quinuclidin-3-yl (3,3-dimethyl-7-((E)-4-(trifluoromethyl)styryl)chroman-4-yl)carbamate] | 9.04 | 9.30 |
